The subject of the experiment is Dirofilaria immitis (JYD-34) resistant strain. The conditions noted are these: in vivo.

As to milbemycin oxime, the “average worms per dog” value is 7.2 worms per dog and the “efficacy (adult worm reduction versus untreated Group 1)” value came out at 70.7%.

The values above are taken from patent US10952988B2, “Methods for controlling the spread of dirofilariosis” (priority 2015, dated 2021).
